Measured values from patent publication US12215123B2, “Cordycepin-based derivatized compound with anti-tumor effect” (NANJING TECH UNIVERSITY, priority 2022, dated 2025).
Where a name gives a salt, the structure may show the parent alone. Read-outs that look alike come from different tables or passages of the source.

Key:
[1] = system: small cell lung cancer cell line H446; assay: MTT proliferation, small cell lung cancer cell line H446; assay type: cell-based; details: for IC50: read-out: IC50 (μM) of compounds in small cell lung cancer cells, H446
Method: (§1) The method for determining inhibitory activities of the compounds on the proliferation of tumor cells by an MTT method is as follows: a bottle of cells in a good state in an exponential growth phase is added with 0.25% trypsin digestive juice, the digestion makes adherent cells fall off, with 2 to 4×10^4 cells/mL, and a cell suspension is prepared. The cell suspension is inoculated on a 96-well plate, with 90 μL/well, and cultured in a constant-temperature CO2 incubator for 24 hours. The prepared compounds are added for testing, with 10 μL/well, and cultured for 72 hours. An MTT reagent is added into a 96-well plate, with 10 μL/well, and reacts in an incubator for 4 hours to absorb a supernatant, and then dimethyl sulfoxide is added, with 100 μL/well. After a crystal is dissolved, an absorbance of each well at a wavelength of 570 nm is measured by an enzyme-linked immunosorbent assay instrument, and a cell inhibition rate is calculated. An S curve is made with a compound concentration and a corresponding inhibition rate. Therefore, IC50 of a corresponding compound is obtained.
(§2) Anti-tumor dose-effect relationship curves of cordycepin and compounds 1, 2, 4, 5, 7, 8, 10, 12, 16, 18, 21, 23, 24, 35 and 38 in small cell lung cancer cell lines H1048, H446 and H69 were analyzed by an MTT experimental method.

[2] = system: small cell lung cancer cell line H1048; assay: MTT proliferation, small cell lung cancer cell line H1048; assay type: cell-based; details: read-out: IC50 (μM) of compounds in small cell lung cancer cells, H1048
Method: as §1, §2

[3] = system: small cell lung cancer cell line H69; assay: MTT proliferation, small cell lung cancer cell line H69; assay type: cell-based; details: read-out: IC50 (μM) of compounds in small cell lung cancer cells, H69
Method: as §1, §2

[4] = system: wild-type AB-line zebrafish; details: 3 dpf to 5 dpf, 35° C.; survival rate>90% and teratogenicity<20%
Method: The zebrafish model is a wild-type AB-line zebrafish from College of Biotechnology and Pharmaceutical Engineering, Nanjing Tech University, and is carried out by a natural mating reproduction method, with 30 zebrafish of 2 dpf in each experimental group. The zebrafish is fed in fish culture water at 28° C. (water quality:200 mg of instant sea salt and CaCO3 are added into 1 L of reverse osmosis water with a conductivity of 480 uS/cm to 510 uS/cm, a pH value of 6.9 to 7.2, and a hardness of 53.7 mg/L to 71.6 mg/L), and the feeding management meets the requirements of international AAALAC certification.
240 3 dpf wild-type AB-line zebrafish were randomly selected in an 8-well plate, with 30 zebrafish in each well, and 3 mL of fish culture water in each well, the cordycepin was diluted according to a maximum lethal dose, dissolved in DMSO, and added into each well according to a concentration gradient (the maximum lethal dose was diluted by 100 times, in which 8 concentration gradient values were taken for the experiment), and meanwhile, a normal control group, a solvent control group G (5% glucose) and a solvent control group D (DMSO) were set. During the experiment, the zebrafish in each group were cultured at 35° C., after the zebrafish were treated to be 5 dpf with a sample to be tested, lethal and developmental malformation conditions of the zebrafish in different doses were investigated respectively, and a maximum tolerance dose (MTD) of the sample to be tested to normal zebrafish was determined under a concentration when survival rate>90% and teratogenicity<20%.

[5] = system: gastric cancer cell line AGS; assay: MTT proliferation, gastric cancer cell line AGS; assay type: cell-based; details: read-out: IC50 (μM) in gastric cancer cells, AGS
Method: as §1
(§3) Anti-tumor dose-effect relationship curves of the cordycepin and 40 compounds prepared in gastric cancer cell lines AGS and BGC-823 were analyzed by an MTT experimental method.

[6] = system: gastric cancer cell line BGC-823; assay: MTT proliferation, gastric cancer cell line BGC-823; assay type: cell-based; details: read-out: IC50 (μM) in gastric cancer cells, BGC-823
Method: as §1, §3

B16-F10 melanoma cells = assay: Mouse transplanted melanoma model; assay type: in vivo, C57BL/6j nude mice; details: B16-F10 transplanted mice; for tumor volume: intragastric 500 ug/time/animal every other day, 24 days, blank 1760 mm^3
Method: The feeding of the mouse model in the drug evaluation follows that: mice are fed and treated in a laminar flow cabinet, with 5 nude mice in each cage, drinking water and feedstuffs are added once every 3 days, and paddings are replaced once a week; a number of mice kept in each cage is no more than 5, the mice in separate cages are kept in groups as far as possible, and the mice should not be kept in a single cage; the animal management must conform to the relevant national standards on animal feeding management, and the behavioral needs of animals should be concerned at the same time to avoid unnecessary stress; the normal physiological and behavioral needs of animals, such as defecation, urination, constant body temperature maintenance, normal activities, posture adjustment and reproduction are met; good ventilation and dry animals are kept; the animals can access to drinking water and food at will, and supplementation, replacement and cleaning operations are easily carried out; a solid and safe environment is provided to avoid accidents of animals, such as escaping or limb trapping in a gap; the animals are avoided from being damaged by sharp edges or protrusions; and the animals are not disturbed during observation.
A mouse transplanted melanoma model was established and a drug was evaluated. 2.5×10^5 B16-F10 melanoma cells were suspended in 100 μL of PBS to be inoculated into an outer side of thigh of left lower limb of C57BL/6j nude mice. One week later, when the transplanted tumor reached about 100 mm^3, the mice were randomly divided into ten groups, with 10 mice in each group, comprising a blank control group, a cordycepin group, a compound 13 group, a compound 14 group, a compound 17 group, a compound 19 group, a compound 22 group, a compound 26 group, a compound 29 group and a compound 34 group respectively. The blank control group was intragastrically administrated with a nutritional agent such as a corn steep liquor and DMSO as a solvent control every day for 24 consecutive days, and the compound groups were intragastrically administrated with corresponding compounds (500 ug/time/animal in all cases) every other day for 24 consecutive days. […] The mice were killed after the experiment, blood and corresponding tissue samples were collected, tumor bodies were immediately photographed and weighed, and some tumor tissues were fixed in a formalin solution to be further detected. Two vertical diameters (length and width) of the transplanted tumor were measured with a caliper every two days to calculate a size of the transplanted tumor, and a tumor value was calculated according to a formula: tumor volume (mm^3)=[…].

[7] = Homo sapiens, NCI-H446, 72 h, MTT, 72 hours, H446
[8] = Homo sapiens, NCI-H1048, 72 h, MTT, 72 hours, H1048
[9] = Homo sapiens, MTT, 72 hours, BGC-823

Compound | Maximum tolerance dose (MTD) in zebrafish model [4] [µM] | IC50 ([5]; MTT, 72 hours, AGS) [µM] | IC50 [6, 9] [µM] | also measured
Nc1ncnc2c1ncn2[C@@H]1O[C@H](COP(=O)(O)O)CC1O (stereo partly shown) [Compound 2, (5-(6-amino-9H-purine-9-yl)-4-hydroxytetrahydrofuran-2-yl)dihydromethyl phosphate] | 845 | 142 | 209 | IC50 [1, 7]: 76.8 µM; IC50 [2, 8]: 55.3 µM; IC50 ([3]; MTT, 72 hours, H69): 50.2 µM
CC(C)C(=O)OCOP(=O)(COC[C@@H]1CC(O)[C@H](n2cnc3c(N)ncnc32)O1)OCOC(=O)C(C)C (stereo partly shown) [Compound 5] | 525 | 72.7 | 91.5 | IC50 [1, 7]: 43.3 µM; IC50 [2, 8]: 40.9 µM; IC50 ([3]; MTT, 72 hours, H69): 53.4 µM
CC(C)OC(=O)C(C)NP(=O)(COC[C@@H]1CC(O)[C@H](n2cnc3c(N)ncnc32)O1)Oc1ccccc1 (stereo partly shown) [Compound 7] | 62 | – | – | IC50 ([1]; Homo sapiens, NCI-H446, 72 h): 20.5 µM; IC50 ([2]; Homo sapiens, NCI-H1048, 72 h): 12.1 µM; IC50 ([3]; 72 h): 9.59 µM; IC50 ([5]; 72 h): 2.46 µM; IC50 ([6]; Homo sapiens, BGC-823, 72 h): 1.61 µM
CC(C)(C)C(=O)OCOP(=O)(COC[C@@H]1CC(O)[C@H](n2cnc3c(N)nc(S)nc32)O1)OCOC(=O)C(C)(C)C (stereo partly shown) [Compound 19] | – | 0.46 | 0.76 | tumor volume (B16-F10 melanoma cells): about 240 mm^3
CC(C)OC(=O)C(C)NP(=O)(COC[C@@H]1CC(O)[C@H](n2cnc3c(N)nc(F)nc32)O1)Oc1ccccc1 (stereo partly shown) [Compound 20, isopropyl((((5-(6-amino-2-fluoro-9H-purin-9-yl)-4-hydroxytetrahydrofuran-2-yl)methoxy)methyl)(phenoxy)phosphoryl)alanine ester] | 0.12 | – | – | IC50 ([5]; 72 h): 0.94 µM; IC50 ([6]; Homo sapiens, BGC-823, 72 h): 1.37 µM
[N-]=[N+]=N[C@@H]1C(O)[C@H](n2cnc3c(N)ncnc32)O[C@@H]1COP(=O)(O)O (stereo partly shown) [Compound 25, (5-(6-amino-9H-purine-9-yl)-3-azide-4-hydroxytetrahydrofuran-2-yl)dihydromethyl phosphate] | 12 | 47.6 | 58.5 | –
CC(C)OC(=O)C(C)NP(=O)(COC[C@H]1O[C@@H](n2cnc3c(N)ncnc32)C(O)[C@H]1N=[N+]=[N-])Oc1ccccc1 (stereo partly shown) [Compound 27, isopropyl((((5-(6-amino-9H-purine-9-yl)-3-azide-4-hydroxytetrahydrofuran-2-yl)methoxy)methyl)(phenoxy)phosphoryl)alanine ester] | – | – | – | IC50 ([5]; 72 h): 8.42 µM; IC50 ([6]; Homo sapiens, BGC-823, 72 h): 10.2 µM; inhibition of melanoma (B16-F10 melanoma cells; same method as Embodiment 46): the Same Inhibition Effect as a Compound 26
COC(=O)C(C)NP(=O)(Oc1ccccc1)OC1C[C@@H](CO)O[C@H]1n1cnc2c(NC(=O)c3ccncc3)ncnc21 (stereo partly shown) [Compound 34, methyl(((5-(hydroxymethyl)-2-(6-(isonicotinamide)-9H-purin-9-yl)tetrahydrofuran-3-yl)oxy)(phenoxy)phosphoryl)alanine salt] | – | 19.4 | 24.2 | tumor volume (B16-F10 melanoma cells): about 240 mm^3
Nc1nc(F)nc2c1ncn2C1OC(COC2CC(CO)C(O)C2O)CC1O (stereo not shown) [Compound 36, 3-((5-(6-amino-2-fluoro-9H-purin-9-yl)-4-hydroxytetrahydrofuran-2-yl)methoxy)-5-(hydroxymethyl)cyclopentane-1,2-diol] | 0.02 | 103 | 90.2 | –
CC(C)(C)C(=O)OCOP(=O)(COC[C@]1(N=[N+]=[N-])CC(O)[C@H](n2cnc3c(N)ncnc32)O1)OCOC(=O)C(C)(C)C (stereo partly shown) [Compound 37] | 0.17 | 64.2 | 56.1 | –
CC(C)Nc1nc2c(N)ncnc2n1[C@@H]1O[C@H](COP(=O)(O)O)CC1O (stereo partly shown) [Compound 39, (5-(6-amino-8-(isopropylamino)-9H-purin-9-yl)-4-hydroxytetrahydrofuran-2-yl)dihydromethyl phosphate] | 28 | 187 | 167 | –
(5-(2-((E)-2-bromocarbonyl)-6-(isonicotinamide)-9H-purin-9-yl)-4-hydroxytetrahydrofuran-2-yl)dihydromethyl phosphate [Compound 35] | 0.025 | 69.4 | – | IC50 ([1]; MTT, 72 hours, H446): 21.4 µM; killing effect on the three lines of cells in vitro ([1]; stated in words for all three lines H1048, H446 and H69, MTT): strong killing effect; IC50 ([2]; MTT, 72 hours, H1048): 32.6 µM; IC50 ([3]; MTT, 72 hours, H69): 21.5 µM; IC50 ([6]; MTT, 72 hours, BGC-823): 71 µM
